Values of other authors in patent US5354868A, “Process for the preparation of (+)-hydantocidin and analogs thereof” (American Cyanamid Company, priority 1993, dated 1994).

Legend:
[1] = tested on: annual and perennial weeds; conditions: compared with glyphosphate and bialaphos
mammals = conditions: in vivo

For `O=C1NC(=O)[C@@]2(N1)O[C@H](CO)[C@@H](O)[C@H]2O` [(+)-Hydantocidin, D-ribose-1-spiro-5'-N^1' -β-hydantoin], the herbicidal activity [1] is given as “herbicidal activity at levels comparable to commercial standards such as glyphosphate and bialaphos” and the toxicity to mammals (mammals) is given as “non-toxic to mammals”.
